Data from US20220395476A1, “DRUG FOR TREATING ARTERY-RELATED DISEASES, AND USE THEREOF” (SHANGHAI INSTITUTE OF MATERIA MEDICA, CHINESE ACADEMY OF …, priority 2019, published 2022).

What was measured:
[1] = test system: aneurysm induced by porcine pancreatic elastase in C57BL/6 mice; test: Aneurysm model induced by porcine pancreatic elastase (PPE model); format: in vivo, mouse; conditions: for diameter of aneurysms: 20 mg/kg intraperitoneal injection from Day 5 for 10 days
Procedure: (§1) The mouse was anesthetized by intraperitoneal injection of 1% pentobarbital sodium at the dose of 20 mg/kg. After the mouse entering anesthesia state, the abdominal hair was shaved off with a razor and further thoroughly depilated with depilatory cream. The abdomen was dried and the mouse was fixed on the operating table. Its body temperature was kept with a heating pad under the body. The abdominal skin was wiped with iodine and deiodined with 75% ethanol. An incision of about 1.5 cm was cut in the middle of the abdomen. The organs were carefully pushed away with tweezers. Then the intestine was divided to the left and right sides with gauze wetted with 3% penicillin-streptomycin. The connective tissue and muscle tissue on the surface of the aorta were carefully separated with tweezers to fully expose the abdominal aorta.
(§2) Sterilized absorbent paper (0.3 cm×0.3 cm) was fully infiltrated in porcine pancreatic elastase (PPE), and then applied on the exposed abdominal aorta for 50 minutes. A gauze wetted with normal saline containing 3% penicillin-streptomycin was placed on the abdominal incision to prevent the abdominal water from excessive loss. After 50 minutes, the absorbent paper on the aorta was carefully taken away. The abdominal cavity was rinsed with normal saline containing 3% penicillin-streptomycin. The peritoneum and skin were sutured with ⅜ suture needle and 5/0 suture line. After suturing, the wound was wiped with iodine and deiodined with 75% ethanol after 1 min. The mouse was placed into a clean feeding cage and can eat and drink freely.
(§3) Sample Fixation, Dehydration, Paraffin Embedding and Slicing 100 ml of formaldehyde, 4 g of sodium dihydrogen phosphate and 6.5 g of disodium hydrogen phosphate were dissolved in 900 ml of distilled water to prepare a polyoxymethylene fixed solution with a volume ratio of 10%. The aortic tissue was fixed in polyoxymethylene fixation solution for 72 hours, then washed with tap water for 4-6 hrs and placed in the dehydrator. The program was set for automatic dehydration, with 75% ethanol for 1.5 hours, 95% ethanol for 1.5 hours, 100% ethanol for 1.5 hours, dimethylbenzene for 1.5 hours and paraffin for 1.5 hours, successively. The paraffin embedding machine was opened 2 hours in advance to melt paraffin, and the temperature was controlled at 60° C. After the paraffin was melted, the dehydrated aortic tissue was embedded in paraffin. It was poured into the embedding box, and the paraffin soaked tissue block was placed into the embedding frame using heated tweezers and gently moved to the cold table. The paraffin block was taken off for slicing after the paraffin was solidified. Before slicing, the paraffin block was put into refrigerator for pre-cooling. After cooling, the paraffin block was cut into continuous 5 μM-thick paraffin sections using the slicer. The sections were unfolded on warm water at 38° C. in a slide spreader, fished with slides coated with APES, and dried naturally for subsequent histopathological staining.
The tissue was fixed, embedded and cut into 4 μM paraffin sections. […]

[2] = test system: aneurysms, intramural hematomas and arterial dissections induced by porcine pancreatic elastase and 1% β-aminopropionitrile in C57BL/6 mice; test: Aneurysm, intramural hematoma and arterial dissection model induced by porcine pancreatic elastase and 1% β-aminopropionitrile (PPE+BAPN model); format: in vivo, mouse; conditions: for histological analysis of the vessel wall: Day 15
Procedure: as §1
as §2, with “away. And the” for “away. The”, “feeding cage, fed with 1% β-aminopropionitrile (BAPN) feed” for “feeding cage”, “freely. The feed was changed every other day.” for “freely.”
as §3
The tissue was fixed, embedded and cut into 4 μM paraffin sections. The paraffin sections were firstly baked (65° C., 60 minutes), and then dewaxed to aqueous phase (dimethylbenzene for 15 minutes→absolute ethanol for 5 minutes→95% ethanol for 5 minutes→75% ethanol for 5 minutes→running water for 1 minute); stained with hematoxylin for 15 minutes and then rinsed with running water for 4 minutes; differentiated with 1% ethanol hydrochloride for 5 seconds (the differentiation time was adjusted according to the preparation time of differentiation solution) and rinsed with running water for 5 minutes; then stained with eosin for 1 minute and placed in water for 1 minute; dehydrated and then permeated with dimethylbenzene (75% ethanol for 5 minutes→95% ethanol for 5 minutes→absolute ethanol for 5 minutes→dimethylbenzene for 15 minutes) and sealed with neutral gum.

[3] = evaluated Day 15, vs model control
[4] = 100 mg/kg intraperitoneal injection from Day 5 for 10 days
[5] = 100 mg/kg intraperitoneal injection from Day 5 for 10 days, evaluated Day 15
[6] = 100 mg/kg intragastric administration from Day 5 for 10 days, evaluated Day 15
[7] = 50 mg/kg orally via gavage from Day 5 for 10 days, evaluated Day 15

O=C(O)/C=C/c1ccc(O)c(O)c1 [Caffeic acid]
diameter of aneurysms [1, 3]: significantly reduced the diameter and expansion of aneurysm in mouse (P<0.01)

Cc1ccc(C(C)C)cc1O [Carvacrol]
histological analysis of the vessel wall [2, 4]: reduced the thickness of vessel wall and protected the integrity of vessel structure | diameter / expansion of aneurysm (maximum blood vessel diameter of arteriopathy site) [2, 5]: significantly reduced the diameter of infrarenal aneurysm in mouse (P<0.001) | occurrence of intramural hematoma and arterial dissection [2, 5]: reduced the occurrence of infrarenal aneurysm, intramural hematoma and arterial dissection in mouse

O=c1ccc2ccccc2o1 [Coumarin]
diameter of infrarenal aneurysm [2, 6]: significantly reduced the diameter of infrarenal aneurysm in mouse

O=C(O)[C@H](O)Cc1ccc(O)c(O)c1 [Danshensu]
diameter of aneurysms [1, 3]: significantly reduced the diameter and expansion of aneurysm (P<0.01)

C=CCc1ccc(O)c(OC)c1 [Eugenol]
diameter of infrarenal aneurysm [2, 6]: significantly reduced the diameter of infrarenal aneurysm in mouse (P<0.001) | occurrence of infrarenal artery intramural hematoma and arterial dissection [2, 6]: reducing the occurrence of infrarenal artery intramural hematoma and arterial dissection in mouse | diameter / expansion of aneurysm (maximum blood vessel diameter of arteriopathy site) [2, 5]: significantly reduced the diameter of infrarenal aneurysm in mouse (P<0.01) | occurrence of intramural hematoma and arterial dissection [2, 5]: reducing the occurrence of infrarenal artery intramural hematoma and arterial dissection and the arterial rupture in mouse

COc1cc(/C=C/C(=O)O)ccc1O [Ferulic acid]
diameter of aneurysms [1, 3]: significantly reduce the diameter of aneurysms in mouse (P<0.001) | histological analysis of the vessel wall [2, 4]: protected the integrity of vessel structure, inhibited the degradation of elastic layer, inhibited the occurrence of intramural hematoma | diameter / expansion of aneurysm (maximum blood vessel diameter of arteriopathy site) [2, 5]: significantly reduced the expansion of aneurysm in mouse (P<0.001) | occurrence of intramural hematoma and arterial dissection [2, 5]: significantly reduced the occurrence of intramural hematoma and arterial dissection, and the arterial rupture in mouse

COC(=O)[C@@H](Cc1ccc(O)c(O)c1)OC(=O)/C=C/c1ccc(O)c(O)c1 [Methyl rosmarinate]
histological analysis of the vessel wall [2, 4]: reduced the thickness of vessel wall and protected the integrity of vessel structure | occurrence of intramural hematoma and arterial dissection [2, 5]: significantly reduced the occurrence of infrarenal aneurism, intramural hematoma and arterial dissection in mouse

COc1ccc(C(C)=O)c(O)c1 [Paeonol]
histological analysis of the vessel wall [2, 4]: reduced the thickness of vessel wall and protected the integrity of vessel structure | diameter / expansion of aneurysm (maximum blood vessel diameter of arteriopathy site) [2, 5]: significantly reduced the diameter of infrarenal aneurysm in mouse (P<0.001) | occurrence of intramural hematoma and arterial dissection [2, 5]: reduced the occurrence of infrarenal artery intramural hematoma and arterial dissection in mouse

O=C(/C=C/c1ccc(O)c(O)c1)OCCc1ccccc1 [Phenethyl caffeate]
diameter of infrarenal aneurysms ([1]; 100 mg/kg orally via gavage from Day 5 for 10 days, evaluated Day 15, vs model control): significantly reduced the diameter of infrarenal aneurysms in mouse (P<0.001) | histological analysis of the vessel wall [2, 4]: reduced the thickness of vessel wall and protected the integrity of vessel structure | diameter / expansion of aneurysm (maximum blood vessel diameter of arteriopathy site) [2, 5]: significantly reduced the diameter of artery expansion in mouse (P<0.01) | occurrence of intramural hematoma and arterial dissection [2, 5]: significantly reduced the occurrence of intramural hematoma and arterial dissection, and the arterial rupture in mouse

COc1cc(/C=C/C(=O)O)ccc1O [Piperazine ferulate, reference compound]
histological analysis of the vessel wall ([2]; 50 mg/kg orally via gavage from Day 5 for 10 days): reduced the thickness of vessel wall and protected the integrity of vessel structure | expansion of arteries (maximum blood vessel diameter) [2, 7]: significantly reduced the expansion of arteries in mouse (P<0.001) | occurrence of aneurysm, intramural hematoma and arterial dissection [2, 7]: significantly reduced the occurrence of aneurysm, intramural hematoma and arterial dissection

COc1cc2ccc(=O)oc2cc1O [Scopoletin]
diameter of infrarenal aneurysm [2, 6]: significantly reduced the diameter of infrarenal aneurysm in mouse

CC(C)(C)C(=O)Oc1ccc(S(=O)(=O)Nc2ccccc2C(=O)NCC(=O)[O-])cc1.[Na+] [Sivelestat sodium, reference compound]
PPE (protective effect) ([1]; aneurysm model induced by porcine pancreatic elastase, mouse): ineffective | PPE + BAPN (protective effect) ([2]; aneurysm model induced by porcine pancreatic elastase and 1% β-aminopropionitrile, mouse): ineffective

O=C(O)/C=C/c1ccc(O)cc1 [p-Coumaric acid]
diameter of infrarenal aneurysm [2, 6]: significantly reduced the diameter of infrarenal aneurysm in mouse

Aspirin eugenol ester
histological analysis of the vessel wall [2, 4]: reduced the thickness of vessel wall and protected the integrity of vessel structure | occurrence of intramural hematoma and arterial dissection [2, 5]: significantly reduced the occurrence of infrarenal artery intramural hematoma and arterial dissection in mouse (P<0.001)
